Tests used:
PC9-ER cell line [1] = test: western blot of autophagy mechanism proteins in PC9-ER cell line treated with polypeptide; format: cell-based; details: FIG. 4
Method: An attempt was made to confirm the inhibitory effects of SPTPKT (polypeptide 1) and QTATAKA (polypeptide 2) against autophagy, based on the results that the expression of ATG5 and ATG5-ATG12 proteins which are known to be involved in autophagy in the cancer cell line (PC9-ER).
Specifically, the PC9-ER cell line was treated with each of the polypeptide 1 and the polypeptide 2 and the expression levels of Beclin1, p-Belclin1, ATG5-ATG12, LC3 I, and LC3 II (i.e., proteins associated with autophagy mechanism) were compared by western blot method, and the results are shown in FIG. 4.

PC9-ER cell line [2] = test: LC3 immunofluorescence staining in PC9-ER cell line; format: cell-based; details: 24 hours after treatment, confocal microscopy, FIG. 5
Method: Additionally, the cells were subjected to immunofluorescence staining after treating the PC9-ER cell line with the polypeptide 2.
(§1) Specifically, 24 hours after treating the PC9-ER cell line with the polypeptide 2, the cells were fixed at room temperature using 4% formaldehyde. Then, the cells were reacted at room temperature for 30 minutes so as to prevent inaccurate binding to antibodies using PBS containing 0.1% BSA, and allowed to react with LC3 antibodies (cell signaling) at 4° C. for 24 hours. After removing the antibodies, the cells were washed with PBS and allowed to react with secondary antibodies (Thermo Fisher) labeled with Alexa 488 fluorescence at room temperature for 1.5 hours. After the reaction, the cells from which antibodies were removed were washed with PBS and stained with DAPI (Thermo Fisher) for 1 minute.

PC9-ER cell line [3] = test: MTT assay, resistance of PC9-ER cell line to anticancer agent after polypeptide treatment; format: cell-based; details: conclusion of Example 2
Method: Additionally, the PC9-ER cell line was treated with the polypeptide 1, polypeptide 2, and GNTITIKT (polypeptide 3), respectively, and the MTT assay was performed so as to confirm the resistance of the PC9-ER cell line to anticancer agents.
(§2) Specifically, the PC9-ER cell line was plated on a 96-well cell culture plate and treated with each of the polypeptides (1 to 3) for 24 hours. Then, the cells were treated for with an anticancer agent subjected to a 1/10-fold serial dilution for 24 hours and confirmed using MTT. As an experiment to utilize the principle that NADH present in the mitochondria of a living cell reacts with MTT to form formazan, formazan was dissolved in DMSO and its absorbance was measured at 570 nm and thereby the growth activity of the cells was confirmed.

PC9-ER cell line [4] = test: inhibitory effect against tumor formation, PC9-ER tumor in nude mice; format: in vivo, athymic nude mice (BALB/C nude); details: PC9-ER tumor in nude mice, 0, 50, 100, 200 μg/mouse, 5 injections through caudal vein, measured on day 41; FIGS. 8A-8C
Method: (§3) Specifically, athymic nude mice (BALB/C nude, 5 to 6-week old females) were subcutaneously injected on the side with the PC9-ER cell line (2×10^6 cells/mouse) to induce tumor. When the tumor volume reached about 150 mm^3, the polypeptide 2 was injected a total of 5 times through the caudal vein and the changes in the tumor size were examined. The tumor volume was directly measured using a caliper and calculated by the following equation (length×width×height×0.5). In order to confirm the inhibitory effect of the polypeptide 2 against tumor formation, the peptide (at concentrations of 0 μg/mouse, 50 μg/mouse, 100 μg/mouse, and 200 μg/mouse) was injected 5 times through the caudal vein from day 25 at 3 day intervals. On the 41st day, the tumors were separated and the sizes of the tumor volumes were measured, and western blot was performed using each labeled antibody.

PC9-ER cell line [5] = test: western blot of tumor tissue from PC9-ER tumor-bearing nude mice; format: in vivo, athymic nude mice (BALB/C nude); details: 50-200 μg/mouse, FIG. 9
Method: as §3

H1975 cells = test: western blot of autophagy controlling proteins in H1975 cells; format: cell-based; details: FIG. 10
H1975 cell line = test: MTT assay, resistance of H1975 cell line to osimertinib after polypeptide treatment; format: cell-based; details: for anticancer activity through the inhibition of autophagy: conclusion of Example 5
Method: Additionally, after the treatment with the polypeptide 1, polypeptide 2, and polypeptide 3, respectively, the MTT assay was performed so as to confirm the resistance to osimertinib (Tagrisso), an anticancer agent.
Specifically, an equal number of cells of the H1975 cell line were plated into a 96-well cell culture plate and treated with the polypeptides (1 to 3) for 24 hours. Then, the cells were treated with osimertinib (Tagrisso), an anticancer agent, which was subjected to a 1/10-fold serial dilution, for 24 hours and were confirmed using MTT. As an experiment to utilize the principle that NADH present in the mitochondria of a living cell reacts with MTT to form formazan, formazan was dissolved in DMSO and its absorbance was measured at 570 nm and thereby the growth activity of the cells was confirmed.

MCF7^R cell line [6] = test: western blot of autophagy controlling proteins in MCF7^R cell line; format: cell-based; details: FIG. 12
Method: MCF7^R cancer cell line having resistance to anticancer agents was constructed to have resistance by exposing to celastrol for a long period of time
To examine the effects of the polypeptide 1 and the polypeptide 2 on the proteins of autophagy controlling mechanism, western blot was performed using each labeled antibody in the MCF7^R cell line.

MCF7^R cell line [7] = test: LC3 immunofluorescence staining in MCF7^R cell line; format: cell-based; details: 24 hours treatment, confocal microscopy, FIG. 13
Method: Additionally, after the treatment with the polypeptide 2 in the MCF7^R cell line, the immunofluorescence staining was performed.
as §1, with “Specifically,” for “Specifically, 24 hours”, “polypeptide 2 on the MCF7^R” for “PC9-ER”, “for 24 hours,” for “with the polypeptide 2,”

[8] = tested on: PC9 cell line and PC9-ER cell line; test: MTT assay, resistance of PC9 and PC9-ER cell lines to anticancer agents; format: cell-based; details: anticancer agent 1/10-fold serial dilution, 24 hours, FIGS. 3A and 3B
Method: The cancer cell line (PC9) used in the present invention was cultured in a minimum essential medium in a conditioned incubator (37° C.) supplemented with 10% fetal bovine serum and antibiotics. The cancer cell line (PC9-ER) was constructed to have resistance by exposing to erlotinib as an anticancer agent for a long period of time.
Additionally, the MTT assay was performed so as to confirm the resistance of the PC9 cell line and the PC9-ER cell line to anticancer agents.
as §2, with “Specifically, an equal number of the PC9 cell line and” for “Specifically,”, “were cultured in” for “was plated on”, “plate,” for “plate and”, “treated” for “treated with each of the polypeptides (1 to 3) for 24 hours. Then, the cells were treated for”, “hours,” for “hours”

Compound: QTATAKA [polypeptide 2]
- expression levels of Beclin1, p-Beclin1, ATG5-ATG12, LC3 I and LC3 II proteins (PC9-ER cell line [1]): lowered
- expression level of LC3 puncta (PC9-ER cell line [2]): lowered
- inhibitory effect against autophagy in the cancer cell line having resistance to anticancer agents (PC9-ER cell line [3]): inhibitory effect against autophagy
- size of tumors (tumor volume) (PC9-ER cell line [4]): significantly reduced
- expression of p-AMPK, Beclin1 and p-Beclin1 proteins in tumor tissue (PC9-ER cell line [5]): decreased in a concentration-dependent manner
- expression of p-mTOR and p62 proteins in tumor tissue (PC9-ER cell line [5]): increased in a concentration-dependent manner
- expression of p-AMPK, p-Beclin1, ATG5, ATG5-ATG12, LC3 I and LC3 II (H1975 cells): lowered
- resistance to osimertinib (Tagrisso), polypeptide at different concentrations (H1975 cell line; MTT): reduced in a concentration-dependent manner
- anticancer activity through the inhibition of autophagy (H1975 cell line): anticancer activity
- expression level of p62 protein (MCF7^R cell line [6]): increased
- expression levels of p-Beclin1, ATG5, ATG5-ATG12, LC3 I and LC3 II proteins (MCF7^R cell line [6]): reduced
- expression level of LC3 puncta (MCF7^R cell line [7]): lowered

Compound: GNTITIKT [polypeptide 3]
- inhibitory effect against autophagy in the cancer cell line having resistance to anticancer agents (PC9-ER cell line [3]): inhibitory effect against autophagy
- anticancer activity through the inhibition of autophagy (H1975 cell line): anticancer activity

Compound: SPTPKT [polypeptide 1]
- expression levels of Beclin1, p-Beclin1, ATG5-ATG12, LC3 I and LC3 II proteins (PC9-ER cell line [1]): lowered
- inhibitory effect against autophagy in the cancer cell line having resistance to anticancer agents (PC9-ER cell line [3]): inhibitory effect against autophagy
- expression of p-AMPK, p-Beclin1, ATG5, ATG5-ATG12, LC3 I and LC3 II (H1975 cells): lowered
- anticancer activity through the inhibition of autophagy (H1975 cell line): anticancer activity
- expression level of p62 protein (MCF7^R cell line [6]): increased
- expression levels of p-Beclin1, ATG5, ATG5-ATG12, LC3 I and LC3 II proteins (MCF7^R cell line [6]): reduced

Compound: CC(=O)O[C@H]1C(=O)[C@@]2(C)[C@H]([C@H](OC(=O)c3ccccc3)[C@]3(O)C[C@H](OC(=O)[C@H](O)[C@@H](NC(=O)c4ccccc4)c4ccccc4)C(C)=C1C3(C)C)[C@]1(OC(C)=O)CO[C@@H]1C[C@@H]2O [taxol]
- resistance of PC9-ER cell line to the anticancer agent compared to PC9 cell line [8]: higher resistance

Compound: CC(=O)O[C@@]12CO[C@@H]1C[C@H](O)[C@@]1(C)C(=O)[C@H](O)C3=C(C)[C@@H](OC(=O)[C@H](O)[C@@H](NC(=O)OC(C)(C)C)c4ccccc4)C[C@@](O)([C@@H](OC(=O)c4ccccc4)[C@H]21)C3(C)C [docetaxel]
- resistance of PC9-ER cell line to the anticancer agent compared to PC9 cell line [8]: higher resistance

Reference: patent US10766926B2, “Composition for autophagy inhibiting in cell, and pharmaceutical composition for preventing or treating tumor disease, or inhibiting anti-cancer agents resistance containing the same” (L-BASE CO., LTD, priority 2018, dated 2020)
